Assay results from US12721823B2, “Methods and compositions for treatment of low circulating testosterone conditions” (University of Florida Research Foundation, Inc., priority 2021, dated 2026).

Tests used:
Format in all cases: in vivo, rat
[1] = test system: Kcc2 gene promoter; assay: Bisulfite sequencing of CpG sites in the Kcc2 gene promoter; conditions: for DNA methylation in the Kcc2 gene promoter: vs con-M*con-F; for methylation of CpG sites in the Kcc2 gene promoter: vs control
Procedure: Genomic DNA was extracted from the sperm pellet and ovaries of adult G1 rats and from hippocampal and hypothalamic tissues of G2 rats using the DNeasy Blood and Tissue kit (Qiagen, Hilden, Germany). The sodium bisulfite conversion was performed with EZ DNA Methylation kits (Zymo Research, Irvine, CA) following the manufacturer's instructions. The primers (Kcc2: forward: […] (SEQ ID NO: 1); reverse: […] (SEQ ID NO: 2) were designed for the bisulfite-converted DNA sequences, using previously published sequences. 5 PCR amplification was performed with HotStar Taq (Qiagen, Hilden, Germany). Amplicons were cloned into pCR4-TOPO vector with the TOPO TA cloning kit for sequencing (Life Technologies, Carlsbad, CA). Miniprep was performed on each positive clone using ZR Plasmid Miniprep kit (Zymo Research, Irvine, CA). Sanger sequencing was done by Genewiz (South Plainfield, NJ, USA) using M13R primers. The DNA methylation status of all CpG sites was analyzed using Benchling Molecular Biology 2.0 Software (Benchling, San Francisco, CA). The bisulfite sequencing analysis of the Kcc2 DNA was performed only in G2 male progeny of con-M*con-F and sevo-M*sevo-F matings.

[2] = test system: Sprague-Dawley rats; assay: Basal and stress-induced (restraint) serum corticosterone, HPA axis activity; conditions: for serum levels of corticosterone before and after physical restraint: all experimental groups
Source text: Sixty-four G1 rats (32 control and 32 sevoflurane exposed) and 122 G2 rats, which were not exposed to sevoflurane anesthesia and were subjected to animal facility rearing only, were studied. The G1 rats were sequentially evaluated in the EPM starting on ~[…], PPI of the acoustic startle response on ~[…] and MWM starting ~on […] (FIG. 1). One half of these animals were sacrificed on ≥[…] to collect trunk blood, brain and testis and ovarian tissues for further analyses. The rest of these animals were physically restrained for 30 min on ≥[…] to measure corticosterone responses, followed by collection of tissue samples (as above) for further analyses. The G2 rats were evaluated in the EPM starting on P60 and PPI of startle on P70 (FIG. 1). One half of these animals were sacrificed on ≥[…] to collect trunk blood and brain tissue samples for further analyses, and the rest of these animals were tested for the corticosterone responses to physical restraint for 30 min on ≥[…] before collecting the trunk blood and brain tissue samples. Blood samples (~300 μl) were collected using the “tail clip” method at rest and 10, 60, and 120 min after the restraint. Physical restraint was administered using rodent holders (Kent scientific Corporation, Torrington, CT). Serum corticosterone was measured using commercial ELISA kits (Cayman Chemical Company, Ann Arbor, MI, USA) according to the manufacturer's instructions.

[3] = test system: Sprague-Dawley rats; assay: Morris water maze (MWM) test
Source text: Sixty-four G1 rats (32 control and 32 sevoflurane exposed) and 122 G2 rats, which were not exposed to sevoflurane anesthesia and were subjected to animal facility rearing only, were studied. The G1 rats were sequentially evaluated in the EPM starting on ~P125, PPI of the acoustic startle response on ~P135 and MWM starting ~on P145 (FIG. 1). One half of these animals were sacrificed on ≥P160 to collect trunk blood, brain and testis and ovarian tissues for further analyses. The rest of these animals were physically restrained for 30 min on ≥P160 to measure corticosterone responses, followed by collection of tissue samples (as above) for further analyses. The G2 rats were evaluated in the EPM starting on P60 and PPI of startle on P70 (FIG. 1). One half of these animals were sacrificed on ≥P95 to collect trunk blood and brain tissue samples for further analyses, and the rest of these animals were tested for the corticosterone responses to physical restraint for 30 min on ≥P95 before collecting the trunk blood and brain tissue samples.
The MWM tests were run using a MWM apparatus and data were analyzed using a computer-based video tracking system (Water 2020; HVS Image) as previously described. 5

FCOC(C(F)(F)F)C(F)(F)F [sevoflurane, 1,1,1,3,3,3-hexafluoro-2-(fluoromethoxy)propane]
DNA methylation in the Kcc2 gene promoter ([1]; hippocampus of G2 male progeny of both exposed parents, CpG site 1): increased DNA methylation | DNA methylation in the Kcc2 gene promoter ([1]; hippocampus of G2 male progeny of both exposed parents, CpG site 2): increased DNA methylation | DNA methylation in the Kcc2 gene promoter ([1]; hippocampus of G2 male progeny of both exposed parents, CpG site 3): increased DNA methylation | DNA methylation in the Kcc2 gene promoter ([1]; hypothalamus of G2 male progeny of both exposed parents, CpG site 1): increased DNA methylation | DNA methylation in the Kcc2 gene promoter ([1]; hypothalamus of G2 male progeny of both exposed parents, CpG site 2): increased DNA methylation | DNA methylation in the Kcc2 gene promoter ([1]; hypothalamus of G2 male progeny of both exposed parents, CpG site 3): increased DNA methylation | methylation of CpG sites in the Kcc2 gene promoter ([1]; ovarian tissue of G1 female rats, CpG site 1): increased methylation | methylation of CpG sites in the Kcc2 gene promoter ([1]; ovarian tissue of G1 female rats, CpG site 2): increased methylation | methylation of CpG sites in the Kcc2 gene promoter ([1]; sperm of G1 male rats, CpG site 1): increased methylation | methylation of CpG sites in the Kcc2 gene promoter ([1]; sperm of G1 male rats, CpG site 2): increased methylation | serum corticosterone levels ([2]; G1 female rats, before and after restraint, vs control): no difference | serum corticosterone ([2]; G1 male rats, 10 min after restraint, vs control): higher levels | total corticosterone responses (AUCg) ([2]; G1 male rats, 30 min restraint on ≥P160, vs control): significantly higher | serum corticosterone ([2]; G1 male rats, 60 min after restraint, vs control): higher levels | serum corticosterone ([2]; G1 male rats, 120 min post restraint, vs control): not different | serum corticosterone ([2]; G1 male rats, before the restraint, vs control): not different | serum levels of corticosterone before and after physical restraint ([2]; G2 female rats): no differences | serum levels of corticosterone before and after physical restraint ([2]; G2 male rats): no differences | MWM tests ([3]; G1 female rats): no significant group effects | MWM escape latencies ([3]; G1 male rats, 5-day training period): no significant between-subjects effect | crossings over the escape platform location, MWM ([3]; G1 male rats, probe test): fewer crossings | time in the target quadrant of the MWM ([3]; G1 male rats, probe test): significantly less time
